Assay results taken from patent US20080280890A1, “HYDROXYLAMINE COMPOUNDS AND METHODS OF THEIR USE” (priority 2007, published 2008).

Experiments:
lipid peroxidation = assay: Lipid peroxidation inhibition (method of Ohkawa); format: biochemical
[1] = test system: Human neuroblastoma SKN-SH cells, resistant to doxorubicin; assay: Chemoresistance: cancer cell viability (MTT) in presence or absence of doxorubicin; format: cell-based; conditions: compound 50 ug/mL, MTT
Source text: A method for evaluating a compound's propensity to overcome cancer cell chemoresistance is described in “Caspase Inhibition Switches Doxorubicin-Induced Apoptosis To Senescence”, Abdelhadi Rebbaa, Xin Zheng, Pauline M Chou and Bernard L Mirkin, Oncogene (2003) 22, 2805-2811. Resistant human cancer cells to doxorubicin were selected by stepwise exposure to drug concentrations ranging from 10^−9 M-10^−6 M over 3 months. They were then subjected to treatment with the doxorubicin alone or in combination with hydroxylamine compounds 1-12, 16, 20, and 21 (Table 4). The cells were incubated with the drugs for 72 hours, and cell viability was measured by the MTT assay. Additionally, molecular pathways that might be associated with increased chemo-responsiveness with these compounds were investigated. p Cancer Cell Viability Data for certain hydroxylamines in the presence or absence of Doxorubicin is listed in Table 4.
A method for evaluating a compound's propensity to overcome cancer cell chemoresistance is described in “Caspase Inhibition Switches Doxorubicin-Induced Apoptosis To Senescence”, Abdelhadi Rebbaa, Xin Zheng, Pauline M Chou and Bernard L Mirkin, Oncogene (2003) 22, 2805-2811. Human neuroblastoma SKN-SH cells (ATCC Cat. No. HTB-11) were cultured in Dulbecco's Modified Eagles Medium (DMEM; Gibco, Grand Island, N.Y.) supplemented with 10% fetal bovine serum (FBS; Sigma-Aldrich, St. Louis, Mo.) at 37° C. in a 95% Air/5% CO2 atmosphere. Resistant human cancer cells to doxorubicin were selected by stepwise exposure to drug concentrations ranging from 10^−9M-10^−6M over 3 months. They were then subjected to treatment with the doxorubicin alone or in combination with hydroxylamine compounds. The cells were incubated with the drugs for 72 hours, and cell viability was measured by the MTT assay. This consists of adding 10 μl/well of MTT (5 mg/ml solution) and incubation for 4 h at 37° C. The precipitate formed is then solubilized by addition of 100 μl of HCL 0.5 N/Isopropanol and incubation for 15 hours at 37° C. The optical density is measured at 570 nm and cell survival is estimated by comparison to untreated cells. Each point represents 4 wells data represent average ± SE. Additionally, molecular pathways that might be associated with increased chemo-responsiveness with these compounds were investigated.
Cytotoxic activity of doxorubicin and hydroxylamine analogs were quantitatively determined by a colorimetric assay utilizing 3-(4,5-dimethyl-2-thiazolyl) 2,5-diphenyl tetrazolium bromide (MTT; Sigma-Aldrich, St. Louis, Mo.). Briefly, cells were seeded at 10^4 cells/well in 96-well plates and maintained in culture for 24 hours at 37° C. in DMEM supplemented with 10% FBS. Drugs were added to designated wells and cells were incubated for […], following which MTT (10 μL of 5 mg/ml solution) was added to each 100 μl well and incubated for 4 hours at 37° C. The cells were solubilized by incubation with 100 μl of HCl 0.5N in isopropanol for 15 hours at 37° C. The optical density of this solution was measured at 570 nm and the percentage of viable cells estimated by comparison with untreated control cells.

[2] = test system: Angiogenesis in CAM model; assay: Neovascularization on the CAM (chick chorioallantoic membrane model of angiogenesis); format: in vivo, chicken; conditions: 30 ug; for Percent inhibition of angiogenesis in CAM model at 30 ug: unit assumed
Experimental: In vivo neovascularization was examined by the method previously described by Auerbach et al. (J. Dev. Biol. 41:391-394 (1974)). Ten-day old chicken embryos were purchased from Spafas, Inc. (Preston, Conn.) and were incubated at 37° C. with 55% relative humidity. In the dark, with the aid of a candling lamp, a small hole was punctured in the shell concealing the air sac with a hypodermic needle. A second hole was punctured in the shell on the broadside of the egg directly over an […] portion of the embryonic membrane, as observed during candling. An artificial air sac was created beneath the second hole by applying gentle vacuum to the first hole using a small rubber squeeze bulb. The vacuum caused the chorioallantoic membrane (CAM) to separate from the shell.
A window, approximately 1.0 cm^2, was cut in the shell over the dropped CAM with the use of a small crafts grinding wheel (Dremel, Division of Emerson Electric Company Racine, Wis.). The window allowed direct access to the underlying CAM.
A pro-angiogenic agent was added to induce new blood vessel branches on the CAM of 10-day old embryos. Filter disks of #1 filter paper (Whatman International, United Kingdom) were punched using a small puncher and were soaked in 3 mg/mL cortisone acetate (Sigma, St. Louis, Mo.) in a solution (95% ethanol and water). The disks were subsequently air dried under sterile conditions. The disks were then suspended in PBS (Phosphate Buffered Saline) and placed on growing CAMs. Filters treated with TP-H (TEMPOL-H) or TEMPOL and/or H2O2 or TP-H and/or bFGF or VEGF were placed on the first day of the 3-day incubation.
For inducing angiogenesis, sterile filter disks were saturated with bFGF (1 μg/ml) (Life Technologies, Gaithersburg, Md.) or other pro-angiogenesis factors and control disks were saturated with PBS without Calcium and Magnesium. […]
Using sterile forceps one filter/CAM was placed from the window. The window was sealed with Highland brand transparent tape.
After 24-48 hr, 10-25 ul of test agent was injected intravenously or added topically into the CAM membrane. Eight-Ten eggs/treatment group were used.
CAM tissue directly beneath filter disk was harvested from embryos treated 48 hours prior with compound or control. Tissues were washed three times with PBS. Sections were placed in a 35-mm petri dish (Nalge Nunc, Rochester, N.Y.) and examined under a SV6 stereomicroscope (Karl Zeiss, Thornwood, N.Y.) at 50× magnification.
CAM sections from Petri dish were examined using SV6 stereomicroscope (Karl Zeiss) at 50× magnification. Digital images of CAM sections from Petri dish were collected using a 3-CCD color video camera system (Toshiba America, New York, N.Y.). These images were analyzed using Image-Pro Plus software (Media Cybernetics, Silver Spring, Md.).
The number of branch points in blood vessels within the circular region superimposed to the area of a filter disk was counted for each section. After incubation at 37° C. with 55% relative humidity for 3 days, the CAM tissue directly beneath each filter disk was resected from control and treated CAM samples. Tissues were washed three times with PBS. Sections were placed in a 35-mm Petri dish (Nalge Nunc; Rochester, N.Y.) and were examined under a SV6 stereomicroscope (Karl Zeiss; Thornwood, N.Y.) at 50× magnification. Digital images of CAM sections adjacent to filters were collected using a 3-CCD color video camera system (Toshiba America; New York, N.Y.) and analyzed with the Image-Pro Plus software (Media Cybernetics; Silver Spring, Md.).
The number of vessel branch points contained in a circular region equal to the area of a filter disk was counted for each section. Percent inhibition data are expressed as the quotient of the experimental value minus the negative control value divided by the difference between the positive control value and the negative control value. […]

Row | melting point | Compound | % Lipid Peroxidation inhibition (at 1 uM) (lipid peroxidation) [%] | Mean OD (×10^−3), cancer cell viability ([1]; Dox. 10^−6 M present (+)) | Mean OD (×10^−3), cancer cell viability ([1]; Dox. absent (−)) | Percent inhibition of angiogenesis in CAM model at 30 ug [2] [%] | Lipid Peroxidation % Inhibition (lipid peroxidation; 10 uM) [%] | Lipid Peroxidation % Inhibition (lipid peroxidation; 100 uM) [%] | CAM data % Inhibition [2] [%]
1 | – | CC1(C)C=CCC(C)(C)N1O.Cl [Compound 35, 1-hydroxy-1,2,3,6-tetrahydro-2,2,6,6-tetramethylpyridine] | 64.4 | 352.75 ×10^−3 | 1128.00 ×10^−3 | – | – | – | –
2 | – | CC1(C)C=C(CO)CC(C)(C)N1O.Cl [Compound 25] | 42.0 | 325.00 ×10^−3 | 1137.50 ×10^−3 | 62.9 | – | – | –
3 | – | Cc1cc(O)c(O)cc1C(=O)NC1CC(C)(C)N(O)C(C)(C)C1.Cl [Compound 27, 4,5-dihydroxy-2-methyl-N-(1-hydroxy-2,2,6,6-tetramethylpiperidin-4-yl)benzamide] | 53.4 | 403.75 ×10^−3 | 1038.33 ×10^−3 | 88.3 | – | – | –
4 | – | CC1(C)CC(N2CCOCC2)CC(C)(C)N1O.Cl [Compound 3, 4-(2,2,6,6-tetramethylpiperidin-1-hydroxy-4-yl)morpholine] | – | 289.50 ×10^−3 | 640.25 ×10^−3 | 54.7 | 77.8 | – | –
5 | – | COC1CC(C)(C)N(O)C(C)(C)C1.Cl [Compound 1, 1-hydroxy-4-methoxy-2,2,6,6-tetramethylpiperidine] | 74.1 | 246.50 ×10^−3 | 524.75 ×10^−3 | 89.9 | 90.8 | – | –
6 | – | O=C(O)c1cc(C(=O)O)c2c(n1)C(=O)C(=O)c1cc(C(=O)O)[nH]c1-2 [PQQ, pyrroloquinoline quinone, reference compound] | – | – | – | – | – | 93.7 | –
7 | – | CC(C)(C)c1cc(NC(=O)C2CC(C)(C)N(O)C(C)(C)C2)cc(C(C)(C)C)c1O.Cl [Compound 29, N-(3,5-di-tert-butyl-4-hydroxyphenyl)-1-hydroxy-2,2,6,6-tetramethylpiperidine-4-carboxamide] | 92.3 | 105.75 ×10^−3 | 1328.00 ×10^−3 | 100 | – | – | –
8 | – | CC(C)(C)/[N+]([O-])=C/c1ccccc1 [Compound 17, α-phenyl-t-butyl nitrone, reference compound] | – | – | – | – | 0.4 | – | –
9 | 220 °C (dec.) | CC1(C)CC(O)(c2ccc(F)cc2)CC(C)(C)N1O.Cl [Compound 57, 4-(4-Fluorophenyl)-1-hydroxyl-2,2,6,6-tetramethylpiperidin-4-ol] | – | 426.25 ×10^−3 | 1078.50 ×10^−3 | 100 | – | – | –
10 | 187 °C (dec.) | CCCCC1(O)CC(C)(C)N(O)C(C)(C)C1.Cl [Compound 41, 1,4-dihydroxy-4-n-butyl-2,2,6,6-tetramethylpiperidine] | – | 261.25 ×10^−3 | 824.75 ×10^−3 | 84.4 | – | – | –
11 | 220.8 °C (dec.) | CC1(C)CC(Oc2nsnc2-c2ccccc2)CC(C)(C)N1O.Cl [Compound 44, 1-hydroxy-4-(4-phenyl-1,2,5-thiadiazol-3-yloxy)-2,2,6,6-tetramethylpiperidine] | – | 13.25 ×10^−3 | 23.00 ×10^−3 | 71.2 | – | – | –
12 | – | COc1cc2c(cc1O)CC[C@@H]1[C@@H]2CC[C@]2(C)[C@@H](O)CC[C@@H]12 [2-Methoxy estradiol, reference compound] | – | – | – | – | 92.3 | – | 92.3
13 | 138.5 °C (dec.) | CC1(C)CC(O)C(Br)C(C)(C)N1O (centres unmarked) [Compound 9, 3-Bromo-2,2,6,6-tetramethyl-piperidine-1,4-diol] | – | 234.75 ×10^−3 | 509.00 ×10^−3 | 82.2 | – | – | –
